Laboratory results published in patent EP2657234B1, “OPTICALLY-ACTIVE DIAZABICYCLOOCTANE DERIVATIVE AND METHOD FOR MANUFACTURING SAME” (Meiji Seika Pharma Co., Ltd., priority 2010, dated 2012).
Structures can show the parent of a compound that is named as a salt.

Experiments:
[1] = target: T1, AmpC β-lactamase (Pseudomonas aeruginosa, UniProt P24735); format: biochemical; settings: result in words
T1 construct: a DNA for encoding an AmpC β-lactamase domain excluding a signal peptide was amplified with PCR; made in house; host or cells: E. coli BL21
T1 sequence (P24735 27-397): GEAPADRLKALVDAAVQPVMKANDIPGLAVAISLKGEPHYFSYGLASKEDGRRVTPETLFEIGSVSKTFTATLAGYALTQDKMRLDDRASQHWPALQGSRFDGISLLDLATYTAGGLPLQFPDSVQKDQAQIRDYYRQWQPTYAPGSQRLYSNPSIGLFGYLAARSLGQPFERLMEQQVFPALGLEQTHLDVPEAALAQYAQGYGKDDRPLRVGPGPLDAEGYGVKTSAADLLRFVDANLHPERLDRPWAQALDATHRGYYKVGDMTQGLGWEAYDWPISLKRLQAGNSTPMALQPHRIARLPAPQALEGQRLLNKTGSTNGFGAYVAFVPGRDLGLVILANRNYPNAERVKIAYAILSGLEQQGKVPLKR

[2] = system: P. aeruginosa PAO1 variant, which constitutively expresses AmpC; experiment: Combinatorial effect: MIC of piperacillin (PIPC) by agar plate dilution (CLSI) with test compound; format: cell-based; settings: for MIC: Pseudomonas aeruginosa, PAO1; for effect of the compound in combination with an antibiotic: result in words
Protocol: The biological activity of the above-mentioned compounds of formulae (H) and (s) can be measured as follows. Specifically, an enzyme inhibitory activity (IC50 value) against AmpC enzyme which is a class C β-lactamase was determined using nitrocephin as a substrate to check whether or not the compounds had the inhibitory activity and compare the activities of them. Further, using constitutive AmpC producing Pseudomonas aeruginosa, a combined antimicrobial activity (MIC) was measured when using Piperacillin (PIPC) as an antibiotic and the compound of formula (H) or (s) in combination to check whether or not the antimicrobial activity of PIPC could be restored.
The combinatorial effect of the test compound with a β-lactam agent against bacteria was evaluated using AmpC constitutive expression strain selected from P. aeruginosa PAO1 through agent exposure. Using piperacillin (PIPC, Sigma-Aldrich) as a β-lactam agent, measurement was conducted by agar plate dilution process in which minimal inhibitory concentration (MIC) of PIPC is based on Clinical and Laboratory Standards Institute (CLSI process). That is, an agara plate containing 4 µg/mL (final concentration) of test compound and PIPC at each concentration in Mueller-Hinton agar (Becton, Dickinson and Company) was made, and bacteria cultured overnight in cation-adjusted Muller-Hinton broth (Becton, Dickinson and Company) were adjusted in the same medium so as to have 10^4 CFU/spot and inoculated on a plate containing an agent. This plate containing an agent was cultured overnight at 35 °C, and the minimum agent concentration in which no growth of bacteria is observed was determined to be MIC.

Row | Compound | β-lactamase enzyme inhibitory activity [1] | MIC [2] [µg/mL] | effect of the compound in combination with an antibiotic [2]
1 | NC(=O)C1CCC2CN1C(=O)N2OS(=O)(=O)O [Example 23, (2S,5R)-1,6-Diazabicyclo[3.2.1]octane-2-carboxamide, 7-oxo-6-(sulfoxy)-monosodium salt] | exhibited the activities | 4 | exhibited the activities
2 | NC(=O)[C@H]1CC[C@H]2CN1C(=O)N2OS(=O)(=O)O [Example 24, (2R,5S)-1,6-Diazabicyclo[3.2.1]octane-2-carboxamide, 7-oxo-6-(sulfoxy)-monosodium salt] | exhibited no activity | 64 | exhibited no activity
3 | C[C@]1(Cn2ccnn2)[C@H](C(=O)O)N2C(=O)C[C@H]2S1(=O)=O [TAZ, Tazobactam, reference compound] | – | 64 | –
